According to patent publication US5283321A (priority 1986, dated 1994):
Peptide text beside a SMILES is read from it.

How the values were obtained:
[1] = system: spleen cells from a NMRI mouse; test: LAF assay, lymphocyte or thymocyte proliferating activity (3H-thymidine incorporation); assay type: cell-based; details: 48 h + 16 h with 3H-thymidine
purified pertussis toxin [2] = test: Immunization of mice with the synthetic peptide, ELISA of sera against native pertussis toxin; assay type: in vivo, mice (NMRI); details: sera two months after third dose
[3] = system: antibodies in rabbit sera; test: ELISA, reaction between the synthetic peptide (BSA-coupled coating antigen) and antibodies in rabbit sera; assay type: binding; details: goat anti-rabbit conjugate 1/500, plates read after 3 min, peptide coupled to BSA as coating antigen
[4] = system: alkaline phosphatase swine anti-human IgG conjugate; test: ELISA, reaction between the synthetic peptide and conjugate only (swine anti-human); assay type: binding; details: no serum, plates read after 13 min
Procedure: (§1) The above synthesized peptide was coupled to a carrier, i.e. bovine serum albumin (BSA) in the following manner to form a peptide antigen (coating antigen) which was used in ELISA.
(§2) Fractions containing coupled material were pooled and the pooled material was used in ELISA as coating antigen and was added directly, without any previous dilution, to the microplate.
(§3) PERFORMANCE 1. Coating of microplates. Microplates were incubated with 0.1 ml of antigen in PBS at room temperature (20°-25° C.) over night.
(§4) 2. Incubation with bovine serum albumin (BSA) and serum. The plates were washed four times and then incubated with 0.1 ml of 1% (w/v) BSA in PBS at 37° C. for one hour. After washing, 0.1 ml of serum appropriately diluted in incubation buffer, was added to the wells and the plate(s) was incubated at room temperature for one hour.
(§5) 3. Incubation with conjugate. After washing, 0.1 ml of conjugate appropiately diluted in incubation buffer, was added to the wells and the plate(s) was incubated at room temperature for two hours.
(§6) 4. After washing, 0.1 ml of the enzyme substrate solution was added to the wells. The plates were kept at room temperature and the absorbance at 405 nm was read after the time indicated below. […]
(§7) The plates were read at times indicated below in an automated ELISA-reader (Titertek, Multiscan). […]

alkaline phosphatase = test: Similar ELISA experiment where enzyme alone was used; assay type: binding; details: enzyme alone instead of conjugate
Text: That the synthesized peptide reacted with and bound to the respective conjugate was further shown by the ability of the conjugates alone to bind the peptide.

antibodies in human sera = test: ELISA, reaction between the synthetic peptide (BSA-coupled coating antigen) and antibodies in human sera; assay type: binding; details: swine anti-human conjugate 1/100, plates read after 20 min, peptide coupled to BSA as coating antigen
[5] = system: alkaline phosphatase goat anti-rabbit Ig conjugate; test: ELISA, reaction between the synthetic peptide and conjugate only (goat anti-rabbit); assay type: binding; details: no serum, plates read after 5 min
Procedure: as §1, §2, §3, §4, §5, §6, §7

purified pertussis toxin [6] = test: Challenge of immunized mice with purified pertussis toxin, survival; assay type: in vivo, mice (NMRI); details: challenge 20 μg/mouse=5×LD50

Compound: Phytohaemagglutinin [PHA]
- cpm (range of triplicates) ([1]; 2.5 μg per well): 6700-8100 cpm
- cpm (range of triplicates) ([1]; 5 μg per well): 9800-10400 cpm
- cpm (range of triplicates) ([1]; 7 μg per well): 7000-8100 cpm

Compound: CC(C)[C@H](NC(=O)[C@H](CO)NC(=O)[C@H](CCCNC(=N)N)NC(=O)[C@H](CCCNC(=N)N)NC(=O)[C@H](CO)NC(=O)[C@@H](NC(=O)[C@H](Cc1ccc(O)cc1)NC(=O)[C@@H]1CCCN1C(=O)[C@H](CC(N)=O)NC(=O)[C@@H]1CCCN1C(=O)[C@H](CC(N)=O)NC(=O)[C@H](C)NC(=O)[C@H](CCCNC(=N)N)NC(=O)[C@@H](NC(=O)[C@H](CCC(N)=O)NC(=O)[C@@H](N)CCCCN)[C@@H](C)O)[C@@H](C)O)C(=O)N[C@@H](C)C(=O)N[C@@H](CO)C(=O)O [The synthetic peptide, H--Lys--Gln--Thr--Arg--Ala--Asn--Pro--Asn--Pro--Tyr--Thr----Ser--Arg--Arg--Ser--Val--Ala--Ser--OH] (H-KQTRANPNPYTSRRSVAS-OH)
- Mean Titre (purified pertussis toxin [2]; endpoint titre against pertussis toxin, cut off absorbance 0.1, 17 mice): 2334
- Titre Range (purified pertussis toxin [2]; endpoint titre against pertussis toxin, cut off absorbance 0.1): 320-40960
- Responders (purified pertussis toxin [2]; of 17 mice, s.c. 3×0.5 ml BSA-coupled peptide antigen on aluminium hydroxide, one month apart): 15
- Absorbance at 405 nm ([3]; serum Rabbit 1 diluted 1/500): 1.21
- Absorbance at 405 nm ([3]; serum Rabbit 2 diluted 1/500): 1.05
- Absorbance at 405 nm [4]: 0.84
- Binding of the peptide to alkaline phosphatase enzyme alone (alkaline phosphatase): no binding was observed
- Absorbance at 405 nm (antibodies in human sera; serum Human 1 (one individual) diluted 1/500): 1.11
- Absorbance at 405 nm (antibodies in human sera; serum Human 2 (pool of human sera) diluted 1/500): 1.26
- cpm (range of triplicates) ([1]; 1 μg per well): 3000-4200 cpm
- cpm (range of triplicates) ([1]; 10 μg per well): 7000-8500 cpm
- Absorbance at 405 nm [5]: 1.23
- Days of survival (mean) (purified pertussis toxin [6]; immunized mice with endpoint titre 80-40960 (17 mice)): 3.765 days
- Days of survival (mean) (purified pertussis toxin [6]; immunized mice with endpoint titre 320-40960 (15 mice)): 4.000 days
- Days of survival (mean) (purified pertussis toxin [6]; immunized mice with endpoint titre 640-40960 (14 mice)): 3.929 days
- Days of survival (mean) (purified pertussis toxin [6]; immunized mice with endpoint titre 1280-40960 (10 mice)): 4.600 days
- Days of survival (mean) (purified pertussis toxin [6]; immunized mice with endpoint titre 2560-40960 (8 mice)): 4.875 days
- Days of survival (mean) (purified pertussis toxin [6]; immunized mice with endpoint titre 5120-40960 (6 mice)): 5.333 days
- Days of survival (mean) (purified pertussis toxin [6]; immunized mice with endpoint titre 10240-40960 (3 mice)): 6.333 days
